Patent publication US10155987B2, “Methods of predicting resistance to JAK inhibitor therapy” (Dana-Farber Cancer Institute, Inc., priority 2012, dated 2018)
Blank lines part the entries; values can stand above or below the compound they belong to.

Columns and labels:
[1] = system: BaF3.EpoR cells expressing JAK2V617F with Y931C mutation; test: Cell growth in response to JAK2 inhibitors, Y931C mutant; format: cell-based, murine
[2] = system: BaF3.EpoR cells expressing JAK2V617F with G935R mutation; test: Cell growth in response to JAK2 inhibitors, G935R mutant; format: cell-based, murine
[3] = system: BaF3.EpoR cells expressing JAK2V617F with Y931C, G935R, R938L, 1960V or E985K mutation; test: Cell growth in response to JAK2 inhibitors, all five resistance mutants (stated together); format: cell-based, murine; details: summary statement
Description: Cell growth in response to various drug concentrations was measured by trypan blue (Sigma) exclusion or with the CellTiter 96® AQueous One Solution Cell Proliferation Assay reagent (Promega, Madison, Wis.).
BaF3.EpoR cell lines expressing potential drug resistant mutant JAK2V617F were generated by retroviral infection, as described previously. […] Polyclonal populations of these cells were used to determine changes in growth in response to various JAK2 inhibitors.

JAK2 = JAK2 (Homo sapiens, UniProt O60674); details: cited from earlier work
Sequence of JAK2 (O60674 whole entry, species assumed): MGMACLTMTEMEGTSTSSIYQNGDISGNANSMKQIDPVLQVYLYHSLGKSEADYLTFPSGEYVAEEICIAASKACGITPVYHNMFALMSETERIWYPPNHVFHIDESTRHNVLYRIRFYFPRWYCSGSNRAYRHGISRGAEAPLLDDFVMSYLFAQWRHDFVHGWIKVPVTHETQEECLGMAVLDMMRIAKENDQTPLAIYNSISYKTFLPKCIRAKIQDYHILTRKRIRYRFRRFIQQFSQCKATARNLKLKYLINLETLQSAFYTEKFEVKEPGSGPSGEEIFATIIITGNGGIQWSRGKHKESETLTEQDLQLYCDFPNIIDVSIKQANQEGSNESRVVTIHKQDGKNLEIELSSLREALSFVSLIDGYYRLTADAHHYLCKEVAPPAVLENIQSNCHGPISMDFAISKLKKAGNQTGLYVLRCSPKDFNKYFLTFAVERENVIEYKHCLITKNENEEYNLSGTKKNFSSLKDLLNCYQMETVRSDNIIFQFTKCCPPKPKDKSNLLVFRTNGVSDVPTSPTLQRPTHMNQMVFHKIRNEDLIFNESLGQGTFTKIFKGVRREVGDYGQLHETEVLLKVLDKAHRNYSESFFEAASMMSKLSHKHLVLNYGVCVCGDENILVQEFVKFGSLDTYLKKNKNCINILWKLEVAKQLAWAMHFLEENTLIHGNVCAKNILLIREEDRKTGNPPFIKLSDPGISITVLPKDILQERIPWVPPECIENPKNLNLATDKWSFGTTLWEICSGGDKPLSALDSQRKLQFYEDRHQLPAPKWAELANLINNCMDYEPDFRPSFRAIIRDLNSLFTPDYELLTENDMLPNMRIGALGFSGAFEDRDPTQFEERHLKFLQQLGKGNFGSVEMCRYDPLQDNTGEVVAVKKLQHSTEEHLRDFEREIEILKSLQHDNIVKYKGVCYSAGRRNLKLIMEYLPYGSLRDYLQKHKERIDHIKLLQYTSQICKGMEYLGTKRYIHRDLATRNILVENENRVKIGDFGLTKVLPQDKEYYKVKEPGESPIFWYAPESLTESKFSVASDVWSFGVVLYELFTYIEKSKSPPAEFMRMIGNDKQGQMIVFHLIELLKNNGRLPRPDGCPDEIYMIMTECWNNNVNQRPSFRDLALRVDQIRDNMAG

increase in EC50 compared to native JAK2V617F [1]: > 7 fold
EC50 ([1]; Mus musculus): > 10 µM
increase in EC50 compared to native JAK2V617F [2]: > 7 fold
EC50 ([2]; Mus musculus): > 10 µM
Structure (SMILES): Cc1cc(Nc2nc(N[C@@H](C)c3ncc(F)cn3)ncc2Cl)n[nH]1 [AZD1480]
resistance conferred by the mutations (in words) [3]: cross-resistance

Structure (SMILES): N#CCNC(=O)c1ccc(-c2ccnc(Nc3ccc(N4CCOCC4)cc3)n2)cc1 [CYT-387]
resistance conferred by the mutations (in words) [3]: cross-resistance

Structure (SMILES): C[C@H](Nc1cc(-c2cnn(C)c2)cc(Nc2cnccn2)n1)c1ccc(F)cc1 [NS018]
IC50 (JAK2): < 0.001 µM
selectivity for JAK2 over other JAK-family kinases (JAK2): 30-50 fold

Structure (SMILES): Cc1cnc(Nc2ccc(OCCN3CCCC3)cc2)nc1Nc1cccc(S(=O)(=O)NC(C)(C)C)c1 [TG101348]
resistance conferred by the mutations (in words) [3]: cross-resistance
